In US20260242419A1, “A CYCLIC PEPTIDE FOR TRAPPING INTERLEUKIN-1 BETA” (Merck Sharp & Dohme LLC, priority 2023, published 2026):
Non-standard residues stand in square brackets, D forms with d. Residues, ends and D or L forms follow the SMILES beside them. dPro(4R-(4-pyridylmethyl)) = O=C(O)[C@H]1C[C@@H](Cc2ccncc2)CN1; Trp(βS-Me,4-F) = C[C@@H](c1c[nH]c2cccc(F)c12)[C@H](N)C(=O)O; Bip(4'-COOH) = N[C@@H](Cc1ccc(-c2ccc(C(=O)O)cc2)cc1)C(=O)O; Ala(1-bicyclo(1.1.1)pentyl) = N[C@@H](CC12CC(C1)C2)C(=O)O; Ala(pyrimidin-5-yl) = N[C@@H](Cc1cncnc1)C(=O)O; Phe(4-COOH) = N[C@@H](Cc1ccc(C(=O)O)cc1)C(=O)O; Pro(cis-4-F) = O=C(O)[C@@H]1C[C@H](F)CN1; Ala(4-THP) = N[C@@H](CC1CCOCC1)C(=O)O; cisHyp = O=C(O)[C@@H]1C[C@H](O)CN1; 4Pal = N[C@@H](Cc1ccncc1)C(=O)O; aThr = C[C@H](O)[C@H](N)C(=O)O; αMeD = C[C@](N)(CC(=O)O)C(=O)O; d(αMeS) = C[C@@](N)(CO)C(=O)O; Dab = NCC[C@H](N)C(=O)O; Aib = CC(C)(N)C(=O)O; Sar = CNCC(=O)O

biological target: T1, IL-1β (Homo sapiens, UniProt P01584); experiment: IL-6 assay in MRC5 cells: inhibition of IL-1β induced IL-6 secretion (AlphaLISA); format: cell-based; details: inhibition of IL-1β induced IL-6 secretion in MRC5 cells; read-out: MRC5 IC50
T1 construct: purchased BioLegend 579404
T1 sequence (P01584 117-269): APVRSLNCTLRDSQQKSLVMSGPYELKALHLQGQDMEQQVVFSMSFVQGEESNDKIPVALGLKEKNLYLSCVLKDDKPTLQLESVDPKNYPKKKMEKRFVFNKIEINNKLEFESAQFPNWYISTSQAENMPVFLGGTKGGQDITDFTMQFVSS
Outline: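 Compound was pre-incubated 1 h at ambient temperature with recombinant human IL-1β at 2λ EC80 before adding human lung fibroblast MRC5 cells (3000/well) in EMEM with 0.025% BSA. After overnight culture at 37 °C, 5% CO2, secreted IL-6 in conditioned medium was measured by AlphaLISA; IC50 from 4-parameter logistic fits.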

Compound	IC50 [pM]
C[C@@H](c1c[nH]c2cccc(F)c12)[C@@H]1NC(=O)[C@@H]2C[C@H](O)CN2C(=O)CNC(=O)[C@H](Cc2ccc(C(=O)O)cc2)NC(=O)[C@H](Cc2ccncc2)NC(=O)[C@H](Cc2ccc(-c3ccc(C(=O)O)cc3)cc2)NC(=O)[C@H]2C[C@@H](Cc3ccncc3)CN2C(=O)CNC(=O)[C@H](CCN)NC(=O)[C@H](CCC(N)=O)NC(=O)[C@H](CC2CCOCC2)NC(=O)[C@](C)(CC(=O)O)NC(=O)[C@H](Cc2c[nH]c3ccccc23)NC(=O)[C@H](CO)NC(=O)C(C)(C)NC1=O [Example 201] (cyclo([Bip(4'-COOH)][4Pal][Phe(4-COOH)]G[cisHyp][Trp(βS-Me,4-F)][Aib]SW[αMeD][Ala(4-THP)]Q[Dab]G[dPro(4R-(4-pyridylmethyl))]))	19
C[C@H](O)[C@@H]1NC(=O)[C@](C)(CC(=O)O)NC(=O)[C@H](Cc2c[nH]c3ccccc23)NC(=O)[C@H](CO)NC(=O)C(C)(C)NC(=O)[C@H]([C@@H](C)c2c[nH]c3cccc(F)c23)NC(=O)[C@@H]2C[C@H](F)CN2C(=O)CNC(=O)[C@H](Cc2ccc(C(=O)O)cc2)NC(=O)[C@H](CC23CC(C2)C3)NC(=O)[C@H](Cc2ccc(-c3ccc(C(=O)O)cc3)cc2)NC(=O)[C@H]2C[C@@H](Cc3ccncc3)CN2C(=O)CNC(=O)[C@H](CCN)NC(=O)[C@H](CCC(N)=O)NC1=O [Example 202] (cyclo([Bip(4'-COOH)][Ala(1-bicyclo(1.1.1)pentyl)][Phe(4-COOH)]G[Pro(cis-4-F)][Trp(βS-Me,4-F)][Aib]SW[αMeD][aThr]Q[Dab]G[dPro(4R-(4-pyridylmethyl))]))	13
CC(C)[C@@H]1NC(=O)[C@](C)(CC(=O)O)NC(=O)[C@H](Cc2c[nH]c3ccccc23)NC(=O)[C@H](CO)NC(=O)C(C)(C)NC(=O)[C@H]([C@@H](C)c2c[nH]c3cccc(F)c23)NC(=O)[C@@H]2C[C@H](F)CN2C(=O)CNC(=O)[C@H](Cc2ccc(C(=O)O)cc2)NC(=O)[C@H](CC23CC(C2)C3)NC(=O)[C@H](Cc2ccc(-c3ccc(C(=O)O)cc3)cc2)NC(=O)[C@H]2C[C@@H](Cc3ccncc3)CN2C(=O)CNC(=O)[C@H](CCN)NC(=O)[C@H](CCC(N)=O)NC1=O [Example 203] (cyclo([Bip(4'-COOH)][Ala(1-bicyclo(1.1.1)pentyl)][Phe(4-COOH)]G[Pro(cis-4-F)][Trp(βS-Me,4-F)][Aib]SW[αMeD]VQ[Dab]G[dPro(4R-(4-pyridylmethyl))]))	16
C[C@@H](c1c[nH]c2cccc(F)c12)[C@@H]1NC(=O)[C@@H]2C[C@H](F)CN2C(=O)CNC(=O)[C@H](Cc2ccc(C(=O)O)cc2)NC(=O)[C@H](CC23CC(C2)C3)NC(=O)[C@H](Cc2ccc(-c3ccc(C(=O)O)cc3)cc2)NC(=O)[C@H]2C[C@@H](Cc3ccncc3)CN2C(=O)CNC(=O)[C@H](CCN)NC(=O)[C@H](CCC(N)=O)NC(=O)[C@H](CC2CCOCC2)NC(=O)[C@@](C)(CO)NC(=O)[C@H](Cc2c[nH]c3ccccc23)NC(=O)[C@H](CO)NC(=O)C(C)(C)NC1=O [Example 204] (cyclo([Bip(4'-COOH)][Ala(1-bicyclo(1.1.1)pentyl)][Phe(4-COOH)]G[Pro(cis-4-F)][Trp(βS-Me,4-F)][Aib]SW[d(αMeS)][Ala(4-THP)]Q[Dab]G[dPro(4R-(4-pyridylmethyl))]))	17
C[C@@H](c1c[nH]c2cccc(F)c12)[C@@H]1NC(=O)[C@@H]2C[C@H](F)CN2C(=O)CNC(=O)[C@H](Cc2ccc(C(=O)O)cc2)NC(=O)[C@H](Cc2ccncc2)NC(=O)[C@H](Cc2ccc(-c3ccc(C(=O)O)cc3)cc2)NC(=O)[C@H]2C[C@@H](Cc3ccncc3)CN2C(=O)CN(C)C(=O)[C@H](CCN)NC(=O)[C@H](CCC(N)=O)NC(=O)[C@H](Cc2cncnc2)NC(=O)C(C)(C)NC(=O)[C@H](Cc2c[nH]c3ccccc23)NC(=O)[C@H](CO)NC(=O)C(C)(C)NC1=O [Example 205] (cyclo([Bip(4'-COOH)][4Pal][Phe(4-COOH)]G[Pro(cis-4-F)][Trp(βS-Me,4-F)][Aib]SW[Aib][Ala(pyrimidin-5-yl)]Q[Dab][Sar][dPro(4R-(4-pyridylmethyl))]))	28
C[C@@H](c1c[nH]c2cccc(F)c12)[C@@H]1NC(=O)[C@@H]2C[C@H](F)CN2C(=O)CNC(=O)[C@H](Cc2ccc(C(=O)O)cc2)NC(=O)[C@H](Cc2ccncc2)NC(=O)[C@H](Cc2ccc(-c3ccc(C(=O)O)cc3)cc2)NC(=O)[C@H]2C[C@@H](Cc3ccncc3)CN2C(=O)CN(C)C(=O)[C@H](CCN)NC(=O)[C@H](CCC(N)=O)NC(=O)[C@H](Cc2cncnc2)NC(=O)[C@@](C)(CO)NC(=O)[C@H](Cc2c[nH]c3ccccc23)NC(=O)[C@H](CO)NC(=O)C(C)(C)NC1=O [Example 206] (cyclo([Bip(4'-COOH)][4Pal][Phe(4-COOH)]G[Pro(cis-4-F)][Trp(βS-Me,4-F)][Aib]SW[d(αMeS)][Ala(pyrimidin-5-yl)]Q[Dab][Sar][dPro(4R-(4-pyridylmethyl))]))	22
C[C@@H](c1c[nH]c2cccc(F)c12)[C@@H]1NC(=O)[C@@H]2C[C@H](O)CN2C(=O)CNC(=O)[C@H](Cc2ccc(C(=O)O)cc2)NC(=O)[C@H](Cc2ccncc2)NC(=O)[C@H](Cc2ccc(-c3ccc(C(=O)O)cc3)cc2)NC(=O)[C@H]2C[C@@H](Cc3ccncc3)CN2C(=O)CN(C)C(=O)[C@H](CCN)NC(=O)[C@H](CCC(N)=O)NC(=O)[C@H](CC2CCOCC2)NC(=O)[C@@](C)(CO)NC(=O)[C@H](Cc2c[nH]c3ccccc23)NC(=O)[C@H](CO)NC(=O)C(C)(C)NC1=O [Example 207] (cyclo([Bip(4'-COOH)][4Pal][Phe(4-COOH)]G[cisHyp][Trp(βS-Me,4-F)][Aib]SW[d(αMeS)][Ala(4-THP)]Q[Dab][Sar][dPro(4R-(4-pyridylmethyl))]))	44
C[C@@H](c1c[nH]c2cccc(F)c12)[C@@H]1NC(=O)[C@@H]2C[C@H](F)CN2C(=O)CNC(=O)[C@H](Cc2ccc(C(=O)O)cc2)NC(=O)[C@H](Cc2ccncc2)NC(=O)[C@H](Cc2ccc(-c3ccc(C(=O)O)cc3)cc2)NC(=O)[C@H]2C[C@@H](Cc3ccncc3)CN2C(=O)CN(C)C(=O)[C@H](CCN)NC(=O)[C@H](CCC(N)=O)NC(=O)[C@H](CC2CCOCC2)NC(=O)[C@](C)(CC(=O)O)NC(=O)[C@H](Cc2c[nH]c3ccccc23)NC(=O)[C@H](CO)NC(=O)C(C)(C)NC1=O [Example 208] (cyclo([Bip(4'-COOH)][4Pal][Phe(4-COOH)]G[Pro(cis-4-F)][Trp(βS-Me,4-F)][Aib]SW[αMeD][Ala(4-THP)]Q[Dab][Sar][dPro(4R-(4-pyridylmethyl))]))	15

Second part, the molecule after the results:

IC50 [pM]	Compound
34	C[C@@H](c1c[nH]c2cccc(F)c12)[C@@H]1NC(=O)[C@@H]2C[C@H](O)CN2C(=O)CNC(=O)[C@H](Cc2ccc(C(=O)O)cc2)NC(=O)[C@H](Cc2ccncc2)NC(=O)[C@H](Cc2ccc(-c3ccc(C(=O)O)cc3)cc2)NC(=O)[C@H]2C[C@@H](Cc3ccncc3)CN2C(=O)CN(C)C(=O)[C@H](CCN)NC(=O)[C@H](CCC(N)=O)NC(=O)[C@H](Cc2cncnc2)NC(=O)[C@](C)(CC(=O)O)NC(=O)[C@H](Cc2c[nH]c3ccccc23)NC(=O)[C@H](CO)NC(=O)C(C)(C)NC1=O [Example 209] (cyclo([Bip(4'-COOH)][4Pal][Phe(4-COOH)]G[cisHyp][Trp(βS-Me,4-F)][Aib]SW[αMeD][Ala(pyrimidin-5-yl)]Q[Dab][Sar][dPro(4R-(4-pyridylmethyl))]))
29	C[C@@H](c1c[nH]c2cccc(F)c12)[C@@H]1NC(=O)[C@@H]2C[C@H](O)CN2C(=O)CNC(=O)[C@H](Cc2ccc(C(=O)O)cc2)NC(=O)[C@H](Cc2ccncc2)NC(=O)[C@H](Cc2ccc(-c3ccc(C(=O)O)cc3)cc2)NC(=O)[C@H]2C[C@@H](Cc3ccncc3)CN2C(=O)CN(C)C(=O)[C@H](CCN)NC(=O)[C@H](CCC(N)=O)NC(=O)[C@H](CC2CCOCC2)NC(=O)[C@](C)(CC(=O)O)NC(=O)[C@H](Cc2c[nH]c3ccccc23)NC(=O)[C@H](CO)NC(=O)C(C)(C)NC1=O [Example 210] (cyclo([Bip(4'-COOH)][4Pal][Phe(4-COOH)]G[cisHyp][Trp(βS-Me,4-F)][Aib]SW[αMeD][Ala(4-THP)]Q[Dab][Sar][dPro(4R-(4-pyridylmethyl))]))
19	C[C@@H](c1c[nH]c2cccc(F)c12)[C@@H]1NC(=O)[C@@H]2C[C@H](F)CN2C(=O)CNC(=O)[C@H](Cc2ccc(C(=O)O)cc2)NC(=O)[C@H](Cc2ccncc2)NC(=O)[C@H](Cc2ccc(-c3ccc(C(=O)O)cc3)cc2)NC(=O)[C@H]2C[C@@H](Cc3ccncc3)CN2C(=O)CNC(=O)[C@H](CCN)NC(=O)[C@H](CCC(N)=O)NC(=O)[C@H](CC2CCOCC2)NC(=O)C(C)(C)NC(=O)[C@H](Cc2c[nH]c3ccccc23)NC(=O)[C@H](CO)NC(=O)C(C)(C)NC1=O [Example 211] (cyclo([Bip(4'-COOH)][4Pal][Phe(4-COOH)]G[Pro(cis-4-F)][Trp(βS-Me,4-F)][Aib]SW[Aib][Ala(4-THP)]Q[Dab]G[dPro(4R-(4-pyridylmethyl))]))
29	C[C@@H](c1c[nH]c2cccc(F)c12)[C@@H]1NC(=O)[C@@H]2C[C@H](O)CN2C(=O)CNC(=O)[C@H](Cc2ccc(C(=O)O)cc2)NC(=O)[C@H](Cc2ccncc2)NC(=O)[C@H](Cc2ccc(-c3ccc(C(=O)O)cc3)cc2)NC(=O)[C@H]2C[C@@H](Cc3ccncc3)CN2C(=O)CNC(=O)[C@H](CCN)NC(=O)[C@H](CCC(N)=O)NC(=O)[C@H](CC2CCOCC2)NC(=O)C(C)(C)NC(=O)[C@H](Cc2c[nH]c3ccccc23)NC(=O)[C@H](CO)NC(=O)C(C)(C)NC1=O [Example 212] (cyclo([Bip(4'-COOH)][4Pal][Phe(4-COOH)]G[cisHyp][Trp(βS-Me,4-F)][Aib]SW[Aib][Ala(4-THP)]Q[Dab]G[dPro(4R-(4-pyridylmethyl))]))
21	C[C@@H](c1c[nH]c2cccc(F)c12)[C@@H]1NC(=O)[C@@H]2C[C@H](O)CN2C(=O)CNC(=O)[C@H](Cc2ccc(C(=O)O)cc2)NC(=O)[C@H](Cc2ccncc2)NC(=O)[C@H](Cc2ccc(-c3ccc(C(=O)O)cc3)cc2)NC(=O)[C@H]2C[C@@H](Cc3ccncc3)CN2C(=O)CNC(=O)[C@H](CCN)NC(=O)[C@H](CCC(N)=O)NC(=O)[C@H](CC2CCOCC2)NC(=O)[C@@](C)(CO)NC(=O)[C@H](Cc2c[nH]c3ccccc23)NC(=O)[C@H](CO)NC(=O)C(C)(C)NC1=O [Example 213] (cyclo([Bip(4'-COOH)][4Pal][Phe(4-COOH)]G[cisHyp][Trp(βS-Me,4-F)][Aib]SW[d(αMeS)][Ala(4-THP)]Q[Dab]G[dPro(4R-(4-pyridylmethyl))]))
